{"source": "patent US20240139220A1", "about": "“TREATMENT OF HPV INFECTION” (priority 2022, published 2024)", "key": {"[1]": {"assay": "Hygroscicity by Dynamic Vapor Sorption (DVS) at 25° C.", "assay_type": "physicochemical", "procedure": "Hygroscopicity was investigated by DVS at 25° C., using the following method: […]"}, "[2]": {"assay": "In vitro tissue permeation test in human cervical tissue", "assay_type": "in vitro ADME", "conditions": "0.1% gel, FIG. 116", "from_the_text": "(§1) FIG. 116 is an in vitro tissue permeation test in vaginal tissue comparing Compound II to ABI-1968. […] Bars B and C show the tissue penetration of a 0.1% Compound II gel in […]. […] This may be a contributing factor to the performance of ABI-1968 in clinical studies. […] This is described in Example 41."}, "[3]": {"assay": "Ex vivo permeation and penetration across porcine vaginal tissue (Franz diffusion cells, IVPT)", "assay_type": "in vitro ADME", "conditions": "porcine vaginal tissue, FIG. 116; Compound II 0.1% gel, ABI-1968 1% and 3% formulations", "from_the_text": "as §1\nFreshly harvested porcine vaginal tissue was procured from local slaughterhouse in an ice box. The vaginal tissue was cut open to expose the mucosal surface and tissue was cleaned by gentle flow of PBS pH 7.4. The porcine vaginal tissue was cut into circular portions (approximately 2 cm^2) with help of a […] punch.\nThe circular portion of tissue was sandwiched between two chambers of a Franz diffusion cell with an active diffusion area of 1 cm^2, and the mucosal layer was exposed to the donor chambers. The resistance across porcine vaginal tissue was measured using a wave form generator to ensure the integrity of the tissue segment used for the permeation study. Porcine vaginal tissue with resistance of ≥3 KΩ.cm^2 was used for study. The receiver chamber was filled with 8 ml of 5% solutol PBS 7.4 pH, which was stirred at 600 rpm with a 3 mm magnetic stir bar and the temperature was maintained at 37° C. with a circulating water bath.\nThe ˜200 mg of gel was filled into tared 1 mL syringe and gel was dispensed to donor chamber. The gel was spread on to mucosal surface with pre weighed applicator. After loading and spreading of the gel onto surface of mucosal surface, the weight of 1 mL syringe and applicator was noted to determine the exact amount of gel loaded into donor chamber.\nTime course (2 h, 4 h and 8 h) porcine vaginal permeation studies were performed. After loading gel, 500 μL samples were withdrawn from the receiver compartment at different time intervals and each time an equal volume of fresh receiver media was used to replace withdrawn samples. The sample withdrawn at each time interval were stored immediately in −20° C. until analysis. After 2, 4 and 8 h, the formulation was removed from the donor chamber with help of syringe and cleaned with cotton swab. The tissue was removed and washed gently with wash solution (50% methanol in water) 5 times and alternatively cleaning with cotton swab.\nAn 8 mm punch of active diffusion area of washed porcine vaginal tissue was removed, weighed and transferred into a tube. This tube was immediately placed into dry ice for ˜15 min. After specified time, tissue was removed and placed in precooled dish. The tissue was minced into smaller pieces on a dish with a precooled surgical blade. The minced tissue was transferred to sample tubes and dish was rinsed with 1 ml of 5% solutol in PBS 7.4 pH and transferred to same tissue sample tube. These tubes were stored in −70° C. until analysis.\nThe samples stored at −20° C. was removed and thawed at room temperature for 30 min. The drug from receptor fluid was centrifuged at 13000 rpm for 5 min and to 200 μL of supernatant equal volume of extraction solvent was added. These samples were centrifuged at 13000 rpm for 5 min and supernatant was transferred into vials for analysis.\nThe minced tissue samples stored at −70° C. were removed and thawed at room temperature for ˜90 min. The samples were kept for shaking at room temperature for 4 h in BioShaker. After 4 h, samples were centrifuged at 13000 rpm for 5 min. To 100 μL of supernatant, 400 μL of extraction solvent was added and vortexed for 2 min. […]"}}}
{"smiles": "CCOC(=O)[C@H](C)N[P@@](=O)(COCCn1cnc2c(OC)nc(N)nc21)OCc1ccccc1.O=C(O)/C=C/C(=O)O", "note": "[Compound II]", "values": [{"measurement": "XRPD pattern after humidity cycle", "setting": "[1]; cycle of 40-0-95-0-45% relative humidity", "value": "does not change"}, {"measurement": "Water content retained", "setting": "[1]; exposed to a cycle of 40-0-95-0-45% relative humidity", "value": "about 0.25%"}, {"measurement": "Tissue penetration", "setting": "[2]", "value": "high tissue penetration"}, {"measurement": "Tissue penetration", "setting": "[3]", "value": "high tissue penetration"}]}
